From patent publication US8436205B2, “Tetrahydronaphthalene compounds” (Actelion Pharmaceuticals Ltd., priority 2008, dated 2013)

What was measured:
[1] = system: human Cav3.1 Cav3.2 or Cav3.3 channel; assay: In vitro assay T channel (FLIPR, Ca2+-induced calcium fluorescence); format: cell-based; conditions: HEK293 cells; 10 mM Ca2+; geometric mean from n values; read-out: T channel antagonistic activity IC50
Protocol: The T channel antagonistic activity (IC50 values) of the compounds of formula (I) is determined in accordance with the following experimental method and data are shown in Table 1.
Human embryonic kidney (HEK293) cells expressing the human Cav3.1 Cav3.2 or Cav3.3 channel, respectively, are grown in culture medium (DMEM containing 10% heat-inactivated fetal calf serum (FCS), 100 U/ml penicillin, 100 μg/ml streptomycin and 1 mg/ml G418). The cells are seeded at 20.000 cells/well into 384-well black clear bottom sterile plates (poly-L-lysine-coated, Becton Dickinson). The seeded plates are incubated overnight at 37° C. in 5% CO2. The Ca^2+ solution is prepared as 100 mM stock solution in 100 mM tetraethylammoniumchloride (TEA-chloride), 50 mM HEPES, 2.5 mM CaCl2, 5 mM KCl, 1 mM MgCl2, adjusted to pH 7.2 with TEA-hydroxide, for use in the assay at a final concentration of 10 mM. Antagonists are prepared as 10 mM stock solutions in DMSO, then diluted in 384 w plates first in DMSO, then in 100 mM TEA-chloride, 50 mM HEPES, 2.5 mM CaCl2, 5 mM KCl, 1 mM MgCl2, adjusted to pH 7.2 with TEA-hydroxide, to obtain 9× stocks. On the day of the assay, 25 μl of staining buffer (HBSS containing 20 mM HEPES, 0.375 g/l NaHCO3 and 3 μM of the fluorescent calcium indicator fluo-4 AM (1 mM stock solution in DMSO, containing 10% pluronic) is added to each well of the seeded plate. The 384-well cell-plates are incubated for 60 min at 37° C. in 5% CO2 followed by washing with 2×50 μl per well using HBSS containing 0.1% BSA, 20 mM HEPES, 0.375 g/l NaHCO3, leaving 50 […] of this buffer for equilibration at room temperature (30-60 min). Within the Fluorescent Imaging Plate Reader (FLIPR, Molecular Devices), antagonists are added to the plate in a volume of 6.25 Owen, incubated for 3 min, and finally 6.25 […] of Ca^2+ solution is added. Fluorescence is measured for each well at 2 second intervals for 8 minutes, and the area under the curve of each fluorescence peak is compared to the area of the fluorescence peak induced by 10 mM Ca^2+ with vehicle in place of antagonist. For each antagonist, the 1050 value (the concentration (in nM) of compound needed to inhibit 50% of the Ca^2+-induced fluorescence response) up to 10 μM is determined. The calculated IC50 values of the compounds may fluctuate depending on the daily cellular assay performance. Fluctuations of this kind are known to those skilled in the art.

[2] = system: isolated mouse hearts; assay: Effect on isolated hearts according to the Langendorff method (Lgdff)
Protocol: The compounds were tested for their potential to reduce blood pressure and their effect on the contractility of the heart muscle. EC50 values on isolated mouse hearts were determined according to Literature (Doring H J., The isolated perfused heart according to Langendorff technique—function—application, Physiol. Bohemoslov. 1990, 39(6), 481-504; Kligfield P, Horner H, Brachfeld N., A model of graded ischemia in the isolated perfused rat heart, J. Appl. Physiol. 1976 June, 40(6), 1004-8).
7 example compounds have been measured using the procedure described above for the Langendorff experiment. The measured EC50 values were in the range of 7 to 29 nM with an average of 13 nM.

| IC50 [1] [µM] | EC50 [2] [µM] | SMILES |
| --- | --- | --- |
| 7.89 | 0.009 | COCC(C)(COC)CN(CCCN(C)CC[C@@]1(OC(=O)C(C)C)CCc2cc(F)ccc2[C@@H]1C(C)C)CC(F)F [Example 6, Isobutyric acid (1S,2S)-2-[2-({3-[(2,2-difluoro-ethyl)-(3-methoxy-2-methoxymethyl-2-methyl-propyl)-amino]-propyl}-methyl-amino)-ethyl]-6-fluoro-1-isopropyl-1,2,3,4-tetrahydro-naphthalen-2-yl ester] |
| 5.41 | 0.007 | COCC(C)(COC)CN(CCF)CCCN(C)CC[C@@]1(OC(=O)CC(F)(F)F)CCc2cc(F)ccc2[C@@H]1C(C)C [Example 3, 3,3,3-Trifluoro-propionic acid (1S,2S)-6-fluoro-2-[2-({3-[(2-fluoro-ethyl)-(3-methoxy-2-methoxymethyl-2-methyl-propyl)-amino]-propyl}-methyl-amino)-ethyl]-1-isopropyl-1,2,3,4-tetrahydro-naphthalen-2-yl ester] |
| 3.25 | – | COCC(C)(COC)CN(CCF)CCCN(C)CC[C@@]1(O)CCc2cc(F)ccc2[C@@H]1C(C)C [Example 1, (1S,2S)-6-Fluoro-2-[2-({3-[(2-fluoro-ethyl)-(3-methoxy-2-methoxymethyl-2-methyl-propyl)-amino]-propyl}-methyl-amino)-ethyl]-1-isopropyl-1,2,3,4-tetrahydro-naphthalen-2-ol] |
| 2.88 | – | COCC(C)(COC)CN(CCCN(C)CC[C@@]1(O)CCc2cc(F)ccc2[C@@H]1C(C)C)CC(F)(F)F [Example 8, (1S,2S)-6-Fluoro-1-isopropyl-2-[2-({3-[(3-methoxy-2-methoxymethyl-2-methyl-propyl)-(2,2,2-trifluoro-ethyl)-amino]-propyl}-methyl-amino)-ethyl]-1,2,3,4-tetrahydro-naphthalen-2-ol] |
| 6.34 | – | COCC(C)(COC)CN(CCCN(C)CC[C@@]1(OC(=O)CC(F)(F)F)CCc2cc(F)ccc2[C@@H]1C(C)C)CC(F)F [Example 7, 3,3,3-Trifluoro-propionic acid (1S,2S)-2-[2-({3-[(2,2-difluoro-ethyl)-(3-methoxy-2-methoxymethyl-2-methyl-propyl)-amino]-propyl}-methyl-amino)-ethyl]-6-fluoro-1-isopropyl-1,2,3,4-tetrahydro-naphthalen-2-yl ester] |
| 3.15 | – | COCC(C)(COC)CN(CCF)CCCN(C)CC[C@@]1(OC(=O)C(C)C)CCc2cc(F)ccc2[C@@H]1C(C)C [Example 2, Isobutyric acid (1S,2S)-6-fluoro-2-[2-({3-[(2-fluoro-ethyl)-(3-methoxy-2-methoxymethyl-2-methyl-propyl)-amino]-propyl}-methyl-amino)-ethyl]-1-isopropyl-1,2,3,4-tetrahydro-naphthalen-2-yl ester] |
| 3.7 | – | COCC(C)(COC)CN(CCCN(C)CC[C@@]1(O)CCc2cc(F)ccc2[C@@H]1C(C)C)CC(F)F [Example 5, (1S,2S)-2-[2-({3-[(2,2-Difluoro-ethyl)-(3-methoxy-2-methoxymethyl-2-methyl-propyl)-amino]-propyl}methyl-amino)-ethyl]-6-fluoro-1-isopropyl-1,2,3,4-tetrahydro-naphthalen-2-ol] |
| 1.69 | – | COCC(C)(COC)CN(CCCN(C)CC[C@@]1(OC(=O)C(C)C)CCc2cc(F)ccc2[C@@H]1C(C)C)CC(F)(F)F [Example 9, Isobutyric acid (1S,2S)-6-fluoro-1-isopropyl-2-[2-({3-[(3-methoxy-2-methoxymethyl-2-methyl-propyl)-(2,2,2-trifluoro-ethyl)-amino]-propyl}-methyl-amino)-ethyl]-1,2,3,4-tetrahydro-naphthalen-2-yl ester] |
| > 10 | 0.009 | COCC(C)(COC)CN(CCCN(C)CC[C@@]1(OC(=O)CC(F)(F)F)CCc2cc(F)ccc2[C@@H]1C(C)C)CC(F)(F)F [Example 10, 3,3,3-Trifluoro-propionic acid (1S,2S)-6-fluoro-1-isopropyl-2-[2-({3-[(3-methoxy-2-methoxymethyl-2-methyl-propyl)-(2,2,2-trifluoro-ethyl)-amino]-propyl}-methyl-amino)-ethyl]-1,2,3,4-tetrahydro-naphthalen-2-yl ester] |

| SMILES | IC50 [1] [µM] | EC50 [2] [µM] |
| --- | --- | --- |
| COCC(C)(COC)CN(CCF)CCCN(C)CC[C@@]1(OC(=O)CF)CCc2cc(F)ccc2[C@@H]1C(C)C [Example 4, Fluoro-acetic acid (1S,2S)-6-fluoro-2-[2-({3-[(2-fluoro-ethyl)-(3-methoxy-2-methoxymethyl-2-methyl-propyl)-amino]-propyl}-methyl-amino)-ethyl]-1-isopropyl-1,2,3,4-tetrahydro-naphthalen-2-yl ester] | 3.96 | – |
